The values that follow come from patent US7998987B2, “Inhibitors of c-Met and uses thereof” (Vertex Pharmaceuticals Incorporated, priority 2005, dated 2011).

Some results are limits rather than exact numbers.

c-Met, sequence (P08581 25-1390): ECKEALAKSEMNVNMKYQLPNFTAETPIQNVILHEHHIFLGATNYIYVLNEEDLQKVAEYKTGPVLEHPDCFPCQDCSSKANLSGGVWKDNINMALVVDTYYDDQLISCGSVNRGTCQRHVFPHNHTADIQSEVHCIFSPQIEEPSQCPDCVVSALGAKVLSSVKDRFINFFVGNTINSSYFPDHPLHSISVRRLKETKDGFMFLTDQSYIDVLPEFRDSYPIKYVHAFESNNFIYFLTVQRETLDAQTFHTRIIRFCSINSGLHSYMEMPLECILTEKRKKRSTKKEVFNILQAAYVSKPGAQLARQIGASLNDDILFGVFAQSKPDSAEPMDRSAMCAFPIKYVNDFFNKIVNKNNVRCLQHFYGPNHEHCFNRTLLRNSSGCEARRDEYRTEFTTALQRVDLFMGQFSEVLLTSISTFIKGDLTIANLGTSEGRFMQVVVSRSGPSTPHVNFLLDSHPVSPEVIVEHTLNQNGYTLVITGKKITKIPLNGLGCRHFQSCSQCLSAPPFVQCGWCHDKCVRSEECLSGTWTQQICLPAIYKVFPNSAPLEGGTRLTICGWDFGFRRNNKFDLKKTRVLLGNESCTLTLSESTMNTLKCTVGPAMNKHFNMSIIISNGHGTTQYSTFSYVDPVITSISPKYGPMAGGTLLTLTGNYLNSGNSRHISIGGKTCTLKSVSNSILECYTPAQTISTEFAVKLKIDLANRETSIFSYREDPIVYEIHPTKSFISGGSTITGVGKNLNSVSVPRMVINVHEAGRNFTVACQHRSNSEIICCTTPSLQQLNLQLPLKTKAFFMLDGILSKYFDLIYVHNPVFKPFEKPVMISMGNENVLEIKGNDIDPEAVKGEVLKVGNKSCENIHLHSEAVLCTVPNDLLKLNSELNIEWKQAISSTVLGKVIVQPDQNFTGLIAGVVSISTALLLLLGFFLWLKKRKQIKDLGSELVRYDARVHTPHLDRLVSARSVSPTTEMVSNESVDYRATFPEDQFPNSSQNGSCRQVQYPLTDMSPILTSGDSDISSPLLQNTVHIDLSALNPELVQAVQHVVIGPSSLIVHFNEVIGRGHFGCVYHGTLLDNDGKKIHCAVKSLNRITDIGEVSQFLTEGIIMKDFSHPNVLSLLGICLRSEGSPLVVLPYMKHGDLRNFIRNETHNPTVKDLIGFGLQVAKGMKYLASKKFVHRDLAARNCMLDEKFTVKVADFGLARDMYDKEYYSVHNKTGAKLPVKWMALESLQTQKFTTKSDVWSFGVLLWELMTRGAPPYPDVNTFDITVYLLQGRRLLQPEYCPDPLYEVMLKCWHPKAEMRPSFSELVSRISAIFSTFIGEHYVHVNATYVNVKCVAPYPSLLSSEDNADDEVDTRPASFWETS

In this experiment the target is c-Met (Homo sapiens, UniProt P08581). Briefly: Ki determination for the inhibition of c-Met kinase activity (standard coupled enzyme system). The format is biochemical. As to conditions: coupled enzyme system, 200 μM ATP, 80 nM c-Met, 30° C.; read-out: c-Met Ki. Summed up:
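The kinase (80 nM) turned over polyGluTyr (10 μM) with ATP (200 μM, added to start), coupled to NADH oxidation via pyruvate kinase/lactate dehydrogenase at pH 7.5 HEPES, 1.5% DMSO.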
A word on the Ki: it is a dissociation constant, usually derived from enzyme kinetics or from competition with a known ligand. As for `Clc1ccc(OCc2nnc3ccc(Nc4cccc(Cl)c4)nn23)cc1` [Compound 380], the Ki was over 2000 nM.
On to `N#CCc1ccc(OCc2nnc3ccc(Nc4cccc(Cl)c4)nn23)cc1` [Compound 382], for which the inhibitory constant (Ki) is over 2000 nM.
Take `C=CCc1ccccc1OCc1nnc2ccc(Nc3cccc(Cl)c3)nn12` [Compound 383]: the inhibitory constant (Ki) is over 2000 nM.
`Clc1cccc(Nc2ccc3nnc(COc4cccc(Cl)c4)n3n2)c1` [Compound 384]: the Ki is over 2000 nM.
To `CCOc1cccc(OCc2nnc3ccc(Nc4cccc(Cl)c4)nn23)c1` [Compound 385] belongs over 2000 nM; to `Clc1cccc(Nc2ccc3nnc(CNc4ccncc4)n3n2)c1` [Compound 386], over 2000 nM; to `Clc1cccc(Nc2ccc3nnc(CSc4ccccc4)n3n2)c1` [Compound 387], over 2000 nM.
On to `Cc1cccc(SCc2nnc3ccc(Nc4cccc(Cl)c4)nn23)c1` [Compound 388], for which the Ki was over 2000 nM.
To `Clc1cccc(Nc2ccc3nnc(CSc4ccccc4Cl)n3n2)c1` [Compound 389] belongs over 2000 nM; to `Fc1ccc(SCc2nnc3ccc(Nc4cccc(Cl)c4)nn23)cc1` [Compound 390], over 2000 nM.
As for `Oc1ccc(OCc2nnc3ccc(Nc4cccc(Cl)c4)nn23)cc1` [Compound 391], the Ki was 100 to 2000 nM.
To `NC(=O)c1ccccc1OCc1nnc2ccc(Nc3cccc(Cl)c3)nn12` [Compound 392] belongs over 2000 nM; to `CC(C)Oc1ccc(NCc2nnc3ccc(Nc4cccc(Cl)c4)nn23)cc1` [Compound 393], over 2000 nM; to `Clc1cccc(Nc2ccc3nnc(CCc4ccncc4)n3n2)c1` [Compound 394], over 2000 nM.
In the case of `Clc1cccc(Nc2ccc3nnc(CCc4c[nH]cn4)n3n2)c1` [Compound 395], the Ki was over 2000 nM.
`CC(=O)Nc1ccc2nnc(Cc3ccc(O)cc3)n2n1` [Compound 396]: the Ki is over 2000 nM.
Take `O=C(Nc1ccc2nnc(Cc3ccc(O)cc3)n2n1)c1ccccc1` [Compound 397]: the Ki was over 2000 nM.
To `O=C(Nc1ccc2nnc(Cc3ccc(O)cc3)n2n1)c1cccc(Cl)c1` [Compound 398] belongs over 2000 nM.
To `O=C(Nc1ccc2nnc(Cc3ccc(O)cc3)n2n1)C1CCCCC1` [Compound 399] belongs over 2000 nM.
Consider `Clc1cccc(Nc2ccc3nnc(C4(c5ccc6c(c5)OCO6)CC4)n3n2)c1` [Compound 400], for which the inhibitory constant (Ki) is under 100 nM.
To `CC(C)(C)Nc1ccc2nnc(Cc3ccc(O)cc3)n2n1` [Compound 401] belongs 100 to 2000 nM; to `Fc1ccc(Cc2nnc3ccc(Nc4cccc(Cl)c4)nn23)cc1` [Compound 402], under 100 nM; to `CS(=O)(=O)Nc1cccc(Cc2nnc3ccc(Nc4cccc(Cl)c4)nn23)c1` [Compound 403], 100 to 2000 nM.
Consider `CN(C)S(=O)(=O)Nc1cccc(Cc2nnc3ccc(Nc4cccc(Cl)c4)nn23)c1` [Compound 404], for which the Ki is over 2000 nM.
Take `Fc1ccc(SCc2nnc3ccc(Nc4cccc(Cl)c4)nn23)c(F)c1` [Compound 405]: the Ki is over 2000 nM.
Consider `Oc1ccccc1SCc1nnc2ccc(Nc3cccc(Cl)c3)nn12` [Compound 406], for which the Ki is over 2000 nM.
To `O=[N+]([O-])c1ncccc1OCc1nnc2ccc(Nc3cccc(Cl)c3)nn12` [Compound 408] belongs over 2000 nM.
To `Oc1cccc(OCc2nnc3ccc(Nc4cccc(Cl)c4)nn23)c1` [Compound 409] belongs 100 to 2000 nM; to `Oc1ccc(NCc2nnc3ccc(Nc4cccc(Cl)c4)nn23)cc1` [Compound 412], 100 to 2000 nM.
To `Nc1ncccc1OCc1nnc2ccc(Nc3cccc(Cl)c3)nn12` [Compound 413] belongs under 100 nM.
Consider `Clc1cccc(Nc2ccc3nnc(CNc4ncccn4)n3n2)c1` [Compound 414], for which the Ki was over 2000 nM.
To `Fc1ccc(C2(c3nnc4ccc(Nc5cccc(Cl)c5)nn34)CCCC2)cc1` [Compound 416] belongs over 2000 nM.
To `CN1C2CCC1CC(Nc1ccc3nnc(Cc4ccc(O)cc4)n3n1)C2` (stereo not drawn) [Compound 417] belongs over 2000 nM; to `Clc1cccc(Nc2ccc3nnc(Cn4ccc5ncccc54)n3n2)c1` [Compound 418], under 100 nM; to `C[C@@H](c1ccc(O)cc1)c1nnc2ccc(NC3CCCCC3)nn12` [Compound 419], under 100 nM.
To `C[C@@H](c1ccc(O)cc1)c1nnc2ccc(NC3CC4CCC3C4)nn12` (stereo partly drawn) [Compound 420] belongs under 100 nM; to `CC(Cn1cnc2ccccc21)c1nnc2ccc(Nc3cccc(Cl)c3)nn12` (stereo not drawn) [Compound 421], over 2000 nM.
Turning to `Oc1ccc(Cc2nnc3ccc(N4CCc5ccccc5C4)nn23)cc1` [Compound 422], the Ki fell in the range of 100 to 2000 nM.
For the molecule `Clc1cccc(Nc2ccc3nnc(COc4ccc5cccnc5c4)n3n2)c1` [Compound 423], the Ki was under 100 nM.
To `Oc1ccc(Cc2nnc3ccc(Nc4ccc(F)c(Cl)c4)nn23)cc1` [Compound 424] belongs under 100 nM.
To `COc1ccc(Cc2nnc3ccc(Nc4ccc(F)c(Cl)c4)nn23)cc1` [Compound 425] belongs under 100 nM; to `C[C@@H](c1ccc(O)cc1)c1nnc2ccc(Nc3ccc(F)c(Cl)c3)nn12` [Compound 426], under 100 nM; to `Fc1ccc(Nc2ccc3nnc(C4(c5ccc6c(c5)OCO6)CC4)n3n2)cc1Cl` [Compound 427], 100 to 2000 nM.
On to `O=c1[nH]ccc2c1ccn2Cc1nnc2ccc(Nc3cccc(Cl)c3)nn12` [Compound 428], for which the inhibition constant Ki was under 100 nM.
As to `Nc1cc(C(F)(F)F)ccc1OCc1nnc2ccc(Nc3cccc(Cl)c3)nn12` [Compound 429], the inhibition constant (Ki) is over 2000 nM.
To `N#Cc1ccc(OCc2nnc3ccc(Nc4cccc(Cl)c4)nn23)c(N)c1` [Compound 430] belongs over 2000 nM.
`Cc1nc2cc(OCc3nnc4ccc(Nc5cccc(Cl)c5)nn34)ccc2s1` [Compound 431]: the Ki is over 2000 nM.
For `Nc1cc(F)ccc1OCc1nnc2ccc(Nc3cccc(Cl)c3)nn12` [Compound 432], the Ki was over 2000 nM.
To `COC(=O)c1ccc(OCc2nnc3ccc(Nc4cccc(Cl)c4)nn23)c(N)c1` [Compound 433] belongs under 100 nM; to `COc1ccc(OCc2nnc3ccc(Nc4cccc(Cl)c4)nn23)c(N)c1` [Compound 434], 100 to 2000 nM; to `Oc1ccc2c(ccn2Cc2nnc3ccc(Nc4cccc(Cl)c4)nn23)c1` [Compound 435], over 2000 nM.
To `COc1ccc(Cc2nnc3ccc(Nc4cccc(Cl)c4)nn23)cc1Br` [Compound 437] belongs 100 to 2000 nM; to `Clc1cccc(Nc2ccc3nnc(Cc4noc5ccccc45)n3n2)c1` [Compound 438], over 2000 nM; to `COc1cccc(Cc2nnc3ccc(Nc4cccc(Cl)c4)nn23)c1` [Compound 439], 100 to 2000 nM.
Regarding `COc1ccc(Cc2nnc3ccc(Nc4cccc(Cl)c4)nn23)c(Cl)c1` [Compound 440], the Ki is under 100 nM.
For `Oc1cccc(CCc2nnc3ccc(Nc4cccc(Cl)c4)nn23)c1` [Compound 441], the Ki was over 2000 nM.
Regarding `COc1cc(Cc2nnc3ccc(Nc4cccc(Cl)c4)nn23)ccc1O` [Compound 442], the Ki is under 100 nM.
As to `C[C@@H](c1ccc(O)cc1)c1nnc2ccc(Nc3cc(Cl)ccc3OCCN3CCCC3)nn12` [Compound 443], the Ki is 100 to 2000 nM.
To `CC(=O)N[C@@H]1CCCC[C@@H]1Nc1ccc2nnc([C@@H](C)c3ccc(O)cc3)n2n1` [Compound 444] belongs 100 to 2000 nM; to `COCCC(=O)N[C@@H]1CCCC[C@@H]1Nc1ccc2nnc([C@@H](C)c3ccc(O)cc3)n2n1` [Compound 445], over 2000 nM; to `CC(=O)N[C@H]1CCCC[C@H]1Nc1ccc2nnc([C@@H](C)c3ccc(O)cc3)n2n1` [Compound 446], 100 to 2000 nM.
To `COCCC(=O)N[C@H]1CCCC[C@H]1Nc1ccc2nnc([C@@H](C)c3ccc(O)cc3)n2n1` [Compound 447] belongs 100 to 2000 nM.
To `CC(=O)N[C@H]1CCCC[C@@H]1Nc1ccc2nnc([C@@H](C)c3ccc(O)cc3)n2n1` [Compound 448] belongs over 2000 nM; to `COCCC(=O)N[C@H]1CCCC[C@@H]1Nc1ccc2nnc([C@@H](C)c3ccc(O)cc3)n2n1` [Compound 449], over 2000 nM; to `CC(=O)N[C@@H]1CCCC[C@H]1Nc1ccc2nnc([C@@H](C)c3ccc(O)cc3)n2n1` [Compound 450], over 2000 nM.
Turning to `COCCC(=O)N[C@@H]1CCCC[C@H]1Nc1ccc2nnc([C@@H](C)c3ccc(O)cc3)n2n1` [Compound 451], the Ki was over 2000 nM.
On to `Nc1ncnc2c1ccn2Cc1nnc2ccc(Nc3cccc(Cl)c3)nn12` [Compound 452], for which the Ki lay in the range of 100 to 2000 nM.
To `Fc1ccc(OCc2nnc3ccc(Nc4cccc(Cl)c4)nn23)cn1` [Compound 453] belongs 100 to 2000 nM; to `Oc1cccc2ccc(NCc3nnc4ccc(Nc5cccc(Cl)c5)nn34)nc12` [Compound 454], over 2000 nM; to `NC(=O)c1ccc(NCc2nnc3ccc(Nc4cccc(Cl)c4)nn23)nc1` [Compound 455], over 2000 nM.
`Nc1ccc(Cc2nnc3ccc(Nc4cccc(Cl)c4)nn23)cc1` [Compound 456]: the inhibitory constant (Ki) was over 2000 nM.
To `CN(C)c1ccc(Cc2nnc3ccc(Nc4cccc(Cl)c4)nn23)cc1` [Compound 457] belongs over 2000 nM; to `Oc1ccc2[nH]cc(Cc3nnc4ccc(Nc5cccc(Cl)c5)nn34)c2c1` [Compound 458], over 2000 nM; to `Fc1ccc2[nH]cc(Cc3nnc4ccc(Nc5cccc(Cl)c5)nn34)c2c1` [Compound 459], over 2000 nM.
To `Clc1cccc(Nc2ccc3nnc(Cc4c[nH]c5ccccc45)n3n2)c1` [Compound 460] belongs over 2000 nM.
To `O=C(O)c1cn(Cc2nnc3ccc(Nc4cccc(Cl)c4)nn23)c2ccccc12` [Compound 461] belongs over 2000 nM; to `Clc1cccc(Nc2ccc3nnc(Cn4ccc5cccnc54)n3n2)c1` [Compound 462], over 2000 nM; to `Clc1cccc(Nc2ccc3nnc(Cn4ccc5cncnc54)n3n2)c1` [Compound 463], over 2000 nM.
